From ChEMBL document CHEMBL1153338, “Semi-synthetic and synthetic 1,2,4-trioxaquines and 1,2,4-trioxolaquines: synthesis, preliminary SAR and comparison with acridine endoperoxide conjugates” (Bioorg Med Chem Lett, 2009)

Columns and labels:
Plasmodium falciparum [1] = test: Antimalarial activity against chloroquine-sensitive Plasmodium falciparum 3D7 infected type A+ human erythrocytes after 24 hrs by [G-3H]hypoxanthine uptake; format: functional, organism-based; details: 3D7, 24 h
Plasmodium falciparum [2] = test: Antimalarial activity against chloroquine-resistant Plasmodium falciparum K1 infected type A+ human erythrocytes after 24 hrs by [G-3H]hypoxanthine uptake; format: functional, organism-based; details: K1, 24 h

Row | Compound | IC50 (Plasmodium falciparum [1]) | IC50 (Plasmodium falciparum [2])
1 | COc1ccc2nc3cc(Cl)ccc3c(NCCNCC[C@H]3O[C@@H]4O[C@@]5(C)CC[C@H]6[C@H](C)CC[C@@H]([C@H]3C)[C@@]46OO5)c2c1 | 12.5 nM | 14.3 nM
2 | COc1ccc2nc3cc(Cl)ccc3c(NCCCNC3CCC4(CC3)OOC3(O4)C4CC5CC(C4)CC3C5)c2c1 (stereo not given) | 12.5 nM | 11.1 nM
3 | COc1ccc2nc3cc(Cl)ccc3c(NCCNC3CCC4(CC3)OOC3(O4)C4CC5CC(C4)CC3C5)c2c1 (stereo not given) | 9.67 nM | 7.2 nM
4 | C[C@H]1[C@@H](CCNCCCCNc2ccnc3cc(Cl)ccc23)O[C@@H]2O[C@@]3(C)CC[C@H]4[C@H](C)CC[C@@H]1[C@@]24OO3 | 12.6 nM | 13.2 nM
5 | C[C@H]1[C@@H](CCNCCCNc2ccnc3cc(Cl)ccc23)O[C@@H]2O[C@@]3(C)CC[C@H]4[C@H](C)CC[C@@H]1[C@@]24OO3 | 11.5 nM | 12.6 nM
6 | Clc1ccc2c(NCCNC3CCC4(CC3)OOC3(O4)C4CC5CC(C4)CC3C5)ccnc2c1 (stereo not given) | 6.56 nM | 3.6 nM
7 | O=C1CCC2(CC1)OOC1(O2)C2CC3CC(C2)CC1C3 (stereo not given) | 3.1 nM | 3.02 nM
8 | Clc1ccc2c(NCCCNC3CCC4(CC3)OOC3(O4)C4CC5CC(C4)CC3C5)ccnc2c1 (stereo not given) | 12.3 nM | 8.32 nM
9 | C[C@H]1[C@@H](CC(=O)NCCCNc2ccnc3cc(Cl)ccc23)O[C@@H]2O[C@@]3(C)CC[C@H]4[C@H](C)CC[C@@H]1[C@@]24OO3 | 9.34 nM | 8.22 nM
10 | C[C@H]1[C@@H](CCNCCCCCNc2ccnc3cc(Cl)ccc23)O[C@@H]2O[C@@]3(C)CC[C@H]4[C@H](C)CC[C@@H]1[C@@]24OO3 | 24.2 nM | 16.2 nM
11 | COc1ccc2nc3cc(Cl)ccc3c(NCCCNCc3ccc(CO[C@H]4O[C@@H]5O[C@@]6(C)CC[C@H]7[C@H](C)CC[C@@H]([C@H]4C)[C@@]57OO6)cc3)c2c1 | 16.3 nM | 20.2 nM
12 | Clc1ccc2c(N3CCN(C4CCC5(CC4)OOC4(O5)C5CC6CC(C5)CC4C6)CC3)ccnc2c1 (stereo not given) | 12.6 nM | 26.2 nM
13 | COc1ccc2nc3cc(Cl)ccc3c(NCCNCc3ccc(CO[C@H]4O[C@@H]5O[C@@]6(C)CC[C@H]7[C@H](C)CC[C@@H]([C@H]4C)[C@@]57OO6)cc3)c2c1 | 12.3 nM | 19.3 nM
14 | C[C@H]1[C@@H](CCNCCNc2ccnc3cc(Cl)ccc23)O[C@@H]2O[C@@]3(C)CC[C@H]4[C@H](C)CC[C@@H]1[C@@]24OO3 | 5.4 nM | 8.7 nM
15 | COc1ccc2nc3cc(Cl)ccc3c(N3CCN(C4CCC5(CC4)OOC4(O5)C5CC6CC(C5)CC4C6)CC3)c2c1 (stereo not given) | 12.3 nM | 6.76 nM
